Data reported in patent US12077503B2, “Substituted cyclic amides and their use as herbicides” (FMC CORPORATION, priority 2015, dated 2024).

Experiments:
Format in all cases: in vivo
[1] = test system: corn (Zea mays); test: Test A postemergence; details: Zea mays, post-emergence, 240 h, 125 g ai/ha, postemergence, visual injury rating after approximately 10 d; read-out: Corn plant response rating (0 to 100 scale, 0 no effect, 100 complete control)
Procedure, shortened: (§1)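 Each rating is a visual injury score from 0 to 100 given about 10 d after treatment, judged against untreated controls kept alongside in the greenhouse. In loam soil–sand blend, seeds got a preemergence directed soil spray, while postemergence plants were 2 to 10 cm tall at spraying.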

[2] = test system: ryegrass, Italian (Italian ryegrass, Lolium multiflorum); test: Test A postemergence; details: Lolium multiflorum, post-emergence, 240 h, 125 g ai/ha, postemergence, visual injury rating after approximately 10 d; read-out: Ryegrass, Italian plant response rating (0 to 100 scale, 0 no effect, 100 complete control)
Procedure, shortened: as §1

[3] = test system: blackgrass (Alopecurus myosuroides); test: Test A postemergence; details: Alopecurus myosuroides, post-emergence, 240 h, 125 g ai/ha, postemergence, visual injury rating after approximately 10 d; read-out: Blackgrass plant response rating (0 to 100 scale, 0 no effect, 100 complete control)
Procedure, shortened: as §1

[4] = test system: giant foxtail (Setaria faberii); test: Test A postemergence; details: Setaria faberi, post-emergence, 240 h, 125 g ai/ha, postemergence, visual injury rating after approximately 10 d; read-out: Foxtail, Giant plant response rating (0 to 100 scale, 0 no effect, 100 complete control)
Procedure, shortened: as §1

[5] = test system: Galium (catchweed bedstraw, Galium aparine); test: Test A postemergence; details: Galium, post-emergence, 240 h, 125 g ai/ha, postemergence, visual injury rating after approximately 10 d; read-out: Galium plant response rating (0 to 100 scale, 0 no effect, 100 complete control)
Procedure, shortened: as §1

[6] = test system: Kochia (Kochia scoparia); test: Test A postemergence; details: Bassia scoparia, post-emergence, 240 h, 125 g ai/ha, postemergence, visual injury rating after approximately 10 d; read-out: Kochia plant response rating (0 to 100 scale, 0 no effect, 100 complete control)
Procedure, shortened: as §1

[7] = test system: pigweed (Amaranthus retroflexus); test: Test A postemergence; details: Amaranthus retroflexus, post-emergence, 240 h, 125 g ai/ha, postemergence, visual injury rating after approximately 10 d; read-out: Pigweed plant response rating (0 to 100 scale, 0 no effect, 100 complete control)
Procedure, shortened: as §1

[8] = test system: barnyardgrass (Echinochloa crus-galli); test: Test A postemergence; details: Echinochloa crus-galli, post-emergence, 240 h, 125 g ai/ha, postemergence, visual injury rating after approximately 10 d; read-out: Barnyardgrass plant response rating (0 to 100 scale, 0 no effect, 100 complete control)
Procedure, shortened: as §1

[9] = test system: wheat (Triticum aestivum); test: Test A postemergence; details: Triticum aestivum, post-emergence, 240 h, 125 g ai/ha, postemergence, visual injury rating after approximately 10 d; read-out: Wheat plant response rating (0 to 100 scale, 0 no effect, 100 complete control)
Procedure, shortened: as §1

[10] = test system: ryegrass, Italian (Italian ryegrass, Lolium multiflorum); test: Test A preemergence; details: Lolium multiflorum, pre-emergence, 240 h; for pest or weed control at 125 g/ha: 125 g ai/ha, preemergence, 0 to 100 scale where 0 is no effect and 100 is complete control, read-out: Ryegrass, Italian plant response rating; for pest or weed control at 500 g/ha: 500 g ai/ha, Preemergence, visual injury vs untreated controls after approximately 10 d, read-out: Ryegrass, Italian plant response rating (0 to 100 scale where 0 is no effect and 100 is complete control)
Procedure, shortened: as §1

[11] = test system: giant foxtail (Setaria faberii); test: Test A preemergence; details: Setaria faberi, pre-emergence, 240 h; for pest or weed control at 125 g/ha: 125 g ai/ha, preemergence, 0 to 100 scale where 0 is no effect and 100 is complete control, read-out: Foxtail, Giant plant response rating; for pest or weed control at 500 g/ha: 500 g ai/ha, Preemergence, visual injury vs untreated controls after approximately 10 d, read-out: Foxtail, Giant plant response rating (0 to 100 scale where 0 is no effect and 100 is complete control)
Procedure, shortened: as §1

[12] = test system: Kochia (Kochia scoparia); test: Test A preemergence; details: Bassia scoparia, pre-emergence, 240 h; for pest or weed control at 125 g/ha: 125 g ai/ha, preemergence, 0 to 100 scale where 0 is no effect and 100 is complete control, read-out: Kochia plant response rating; for pest or weed control at 500 g/ha: 500 g ai/ha, Preemergence, visual injury vs untreated controls after approximately 10 d, read-out: Kochia plant response rating (0 to 100 scale where 0 is no effect and 100 is complete control)
Procedure, shortened: as §1

[13] = test system: pigweed (Amaranthus retroflexus); test: Test A preemergence; details: Amaranthus retroflexus, pre-emergence, 240 h; for pest or weed control at 125 g/ha: 125 g ai/ha, preemergence, 0 to 100 scale where 0 is no effect and 100 is complete control, read-out: Pigweed plant response rating; for pest or weed control at 500 g/ha: 500 g ai/ha, Preemergence, visual injury vs untreated controls after approximately 10 d, read-out: Pigweed plant response rating (0 to 100 scale where 0 is no effect and 100 is complete control)
[14] = test system: barnyardgrass (Echinochloa crus-galli); test: Test A preemergence; details: Echinochloa crus-galli, pre-emergence, 240 h; for pest or weed control at 125 g/ha: 125 g ai/ha, preemergence, 0 to 100 scale where 0 is no effect and 100 is complete control, read-out: Barnyardgrass plant response rating; for pest or weed control at 500 g/ha: 500 g ai/ha, Preemergence, visual injury vs untreated controls after approximately 10 d, read-out: Barnyardgrass plant response rating (0 to 100 scale where 0 is no effect and 100 is complete control)
Procedure, shortened: as §1

[15] = test system: ragweed (common ragweed, Ambrosia elatior); test: Test A preemergence; details: Ambrosia artemisiifolia, pre-emergence, 240 h; for pest or weed control at 125 g/ha: 125 g ai/ha, preemergence, 0 to 100 scale where 0 is no effect and 100 is complete control, read-out: Ragweed plant response rating; for pest or weed control at 500 g/ha: 500 g ai/ha, Preemergence, visual injury vs untreated controls after approximately 10 d, read-out: Ragweed plant response rating (0 to 100 scale where 0 is no effect and 100 is complete control)
Procedure, shortened: as §1

Structure (SMILES)	plant injury at 125 g/ha [1]	pest or weed control at 125 g/ha [2]	pest or weed control at 125 g/ha [3]	pest or weed control at 125 g/ha [4]	pest or weed control at 125 g/ha [5]	pest or weed control at 125 g/ha [6]	pest or weed control at 125 g/ha [7]	pest or weed control at 125 g/ha [8]	plant injury at 125 g/ha [9]	pest or weed control at 125 g/ha [10]	pest or weed control at 500 g/ha [10]	pest or weed control at 125 g/ha [11]	pest or weed control at 500 g/ha [11]	pest or weed control at 125 g/ha [12]	pest or weed control at 500 g/ha [12]	pest or weed control at 125 g/ha [13]	pest or weed control at 500 g/ha [13]	pest or weed control at 125 g/ha [14]	pest or weed control at 500 g/ha [14]	pest or weed control at 125 g/ha [15]	further results
CN1CC(c2cccc(I)c2)C(C(=O)Nc2ccccc2F)C1=O (stereo not drawn) [Compound 846]	60%	70%	50%	90%	0%	40%	0%	90%	0%	60%	70%	90%	90%	20%	70%	0%	0%	90%	90%	0%	pest or weed control at 500 g/ha [15]: 0%
Cc1cc(F)cc([C@H]2CNC(=O)[C@@H]2C(=O)Nc2ccc(F)c(F)c2F)c1 [Compound 848]	0%	0%	0%	70%	30%	0%	0%	90%	0%	40%	50%	90%	90%	40%	70%	40%	50%	90%	90%	0%	pest or weed control at 500 g/ha [15]: 30%
Cc1cc(F)cc([C@H]2CN(C)C(=O)[C@@H]2C(=O)Nc2cccc(F)c2F)c1 [Compound 849]	70%	0%	30%	90%	60%	0%	0%	90%	30%	80%	90%	90%	90%	80%	80%	40%	50%	90%	90%	80%	pest or weed control at 500 g/ha [15]: 90%
Cc1cc(F)cc([C@H]2CN(C)C(=O)[C@@H]2C(=O)Nc2ccccc2F)c1 [Compound 850]	30%	0%	0%	80%	30%	0%	0%	90%	20%	70%	70%	90%	90%	30%	70%	20%	30%	90%	90%	0%	pest or weed control at 500 g/ha [15]: 0%
COc1ccc([C@H]2CN(C)C(=O)[C@@H]2C(=O)Nc2ccccc2F)cc1OC [Compound 852]	0%	0%	0%	80%	0%	0%	0%	90%	0%	0%	30%	90%	90%	0%	20%	20%	40%	90%	90%	0%	pest or weed control at 500 g/ha [15]: 0%
COc1ccc([C@H]2CN(C)C(=O)[C@@H]2C(=O)Nc2cccc(F)c2F)cc1OC [Compound 853]	0%	0%	20%	90%	0%	0%	0%	90%	0%	0%	60%	90%	100%	40%	40%	40%	40%	90%	100%	0%	pest or weed control at 500 g/ha [15]: 20%
COc1ccc([C@H]2CN(C)C(=O)[C@@H]2C(=O)Nc2ccccc2SC)cc1OC [Compound 854]	0%	0%	0%	50%	0%	0%	0%	0%	0%	0%	0%	50%	80%	0%	0%	0%	0%	0%	80%	0%	pest or weed control at 500 g/ha [15]: 0%
